This is an account of results in patent publication US8871753B2, “Macrocyclic compounds and their use as kinase inhibitors” (Incyte Corporation, priority 2008, dated 2014).

Where a name gives a salt, the structure may show the parent alone.

Common to all, as to format: biochemical
Assay [1] concerns the target T1, human JAK3 (a.a. 781-1124) (Homo sapiens, UniProt P52333).
T1 construct: JAK3 (a.a. 781-1124); His tag (N); made in house; host or cells: insect cells (baculovirus)
In words: In vitro JAK kinase assay (HTRF, phosphorylation of a biotinylated peptide), JAK3. The note with it: Table B1. Summed up:
(§1)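 Kinase reactions ran at room temperature for 1 h with ATP matched per isoform (JAK1 90 μM, JAK2 30 μM, JAK3 3 μM). After an EDTA stop, the phosphorylated biotin-peptide was read by HTRF using Eu-Py20 and SA-APC after 40 min binding.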
For orientation: In TR-FRET formats the signal depends on donor and acceptor labels being close together.

The target of assay [2] is T2, Recombinant Human Anaplastic Lymphoma Kinase (Homo sapiens, UniProt Q9UM73).
T2 construct: purchased Invitrogen, Carlsbad, Calif
Kind of assay: ALK HTRF kinase assay. The note with it: for IC50: Table B1, cells without percent sign; for ALK % of inhibition at a concentration of 500 nM or 1 mM: compound at a concentration of 500 nM or 1 mM (not specified), cells shown as percentage. The method, boiled down: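 Kinase activity of the recombinant human protein is measured on a biotinylated peptide, with a Eu-W1024 anti-phosphotyrosine antibody and streptavidin-allophycocyanin generating the homogeneous time-resolved fluorescence signal. Inhibition curves are fitted to yield IC50.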

The target in assay [3] is T3, human JAK1 (a.a. 837-1142) (Homo sapiens, UniProt P23458).
T3 construct: human JAK1 (a.a. 837-1142); His tag (N); made in house; host or cells: insect cells (baculovirus)
In words: In vitro JAK kinase assay (HTRF, phosphorylation of a biotinylated peptide), JAK1. The settings on record: Table B1; read-out: JAK1 IC50. Summed up: as §1

Assay [4] has as its target T4, human JAK2 (a.a. 828-1132) (Homo sapiens, UniProt O60674).
T4 construct: JAK2 (a.a. 828-1132); His tag (N); made in house; host or cells: insect cells (baculovirus)
Kind of assay: In vitro JAK kinase assay (HTRF, phosphorylation of a biotinylated peptide), JAK2. The settings on record: Table B1. Summed up:
as §1

Another assay deals with TYK2 (Homo sapiens, UniProt P29597). Kind of assay: TYK2 kinase inhibition (Table A1). The settings on record: Table B1.
Chain of TYK2 (P29597 whole entry): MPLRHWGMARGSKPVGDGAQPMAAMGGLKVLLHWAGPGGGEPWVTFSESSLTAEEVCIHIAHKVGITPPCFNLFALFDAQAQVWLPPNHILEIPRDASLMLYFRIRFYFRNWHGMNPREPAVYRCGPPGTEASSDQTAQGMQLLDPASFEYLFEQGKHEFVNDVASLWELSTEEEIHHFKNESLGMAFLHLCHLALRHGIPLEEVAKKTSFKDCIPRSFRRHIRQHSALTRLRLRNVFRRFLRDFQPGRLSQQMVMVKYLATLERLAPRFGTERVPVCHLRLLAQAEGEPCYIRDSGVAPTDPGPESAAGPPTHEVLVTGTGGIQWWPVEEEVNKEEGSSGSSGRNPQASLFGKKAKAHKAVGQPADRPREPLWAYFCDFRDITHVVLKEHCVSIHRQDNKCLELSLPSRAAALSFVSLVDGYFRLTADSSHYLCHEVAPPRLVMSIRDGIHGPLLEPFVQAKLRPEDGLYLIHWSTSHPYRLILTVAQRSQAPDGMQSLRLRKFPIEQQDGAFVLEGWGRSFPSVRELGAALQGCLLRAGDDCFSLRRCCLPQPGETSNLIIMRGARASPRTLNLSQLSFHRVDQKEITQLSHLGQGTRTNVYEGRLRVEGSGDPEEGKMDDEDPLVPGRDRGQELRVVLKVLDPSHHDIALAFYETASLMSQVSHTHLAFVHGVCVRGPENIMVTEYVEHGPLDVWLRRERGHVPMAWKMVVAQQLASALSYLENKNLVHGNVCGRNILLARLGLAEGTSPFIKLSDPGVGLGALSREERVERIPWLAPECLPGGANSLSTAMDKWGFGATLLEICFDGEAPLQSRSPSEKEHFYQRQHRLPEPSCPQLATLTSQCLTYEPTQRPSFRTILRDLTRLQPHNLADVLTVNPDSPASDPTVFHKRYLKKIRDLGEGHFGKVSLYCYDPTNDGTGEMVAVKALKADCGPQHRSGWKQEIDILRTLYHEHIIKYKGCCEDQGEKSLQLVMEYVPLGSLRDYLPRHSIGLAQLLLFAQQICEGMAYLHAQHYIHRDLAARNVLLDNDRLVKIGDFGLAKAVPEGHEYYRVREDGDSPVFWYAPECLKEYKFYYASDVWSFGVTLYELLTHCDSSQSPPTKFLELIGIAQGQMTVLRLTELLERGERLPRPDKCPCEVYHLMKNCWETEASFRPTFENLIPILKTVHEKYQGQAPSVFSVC

T3 sequence (P23458 849-1154): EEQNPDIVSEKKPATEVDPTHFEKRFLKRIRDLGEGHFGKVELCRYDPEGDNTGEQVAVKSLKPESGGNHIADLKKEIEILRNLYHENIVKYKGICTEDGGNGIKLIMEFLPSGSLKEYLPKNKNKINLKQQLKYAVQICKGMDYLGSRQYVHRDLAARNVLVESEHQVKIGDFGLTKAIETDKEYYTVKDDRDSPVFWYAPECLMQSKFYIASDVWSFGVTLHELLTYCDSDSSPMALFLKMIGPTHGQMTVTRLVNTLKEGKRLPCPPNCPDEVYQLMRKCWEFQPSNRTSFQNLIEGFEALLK
T1 sequence (P52333 781-1124): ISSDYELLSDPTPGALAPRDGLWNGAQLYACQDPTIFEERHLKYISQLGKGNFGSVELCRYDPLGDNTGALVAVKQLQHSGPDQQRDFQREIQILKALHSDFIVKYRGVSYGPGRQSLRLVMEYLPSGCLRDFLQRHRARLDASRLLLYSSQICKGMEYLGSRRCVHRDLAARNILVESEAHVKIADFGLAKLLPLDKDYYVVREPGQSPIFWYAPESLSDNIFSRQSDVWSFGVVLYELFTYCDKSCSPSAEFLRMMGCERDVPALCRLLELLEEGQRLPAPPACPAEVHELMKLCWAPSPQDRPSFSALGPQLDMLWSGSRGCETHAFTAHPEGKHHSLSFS
T2 sequence (Q9UM73 19-1620): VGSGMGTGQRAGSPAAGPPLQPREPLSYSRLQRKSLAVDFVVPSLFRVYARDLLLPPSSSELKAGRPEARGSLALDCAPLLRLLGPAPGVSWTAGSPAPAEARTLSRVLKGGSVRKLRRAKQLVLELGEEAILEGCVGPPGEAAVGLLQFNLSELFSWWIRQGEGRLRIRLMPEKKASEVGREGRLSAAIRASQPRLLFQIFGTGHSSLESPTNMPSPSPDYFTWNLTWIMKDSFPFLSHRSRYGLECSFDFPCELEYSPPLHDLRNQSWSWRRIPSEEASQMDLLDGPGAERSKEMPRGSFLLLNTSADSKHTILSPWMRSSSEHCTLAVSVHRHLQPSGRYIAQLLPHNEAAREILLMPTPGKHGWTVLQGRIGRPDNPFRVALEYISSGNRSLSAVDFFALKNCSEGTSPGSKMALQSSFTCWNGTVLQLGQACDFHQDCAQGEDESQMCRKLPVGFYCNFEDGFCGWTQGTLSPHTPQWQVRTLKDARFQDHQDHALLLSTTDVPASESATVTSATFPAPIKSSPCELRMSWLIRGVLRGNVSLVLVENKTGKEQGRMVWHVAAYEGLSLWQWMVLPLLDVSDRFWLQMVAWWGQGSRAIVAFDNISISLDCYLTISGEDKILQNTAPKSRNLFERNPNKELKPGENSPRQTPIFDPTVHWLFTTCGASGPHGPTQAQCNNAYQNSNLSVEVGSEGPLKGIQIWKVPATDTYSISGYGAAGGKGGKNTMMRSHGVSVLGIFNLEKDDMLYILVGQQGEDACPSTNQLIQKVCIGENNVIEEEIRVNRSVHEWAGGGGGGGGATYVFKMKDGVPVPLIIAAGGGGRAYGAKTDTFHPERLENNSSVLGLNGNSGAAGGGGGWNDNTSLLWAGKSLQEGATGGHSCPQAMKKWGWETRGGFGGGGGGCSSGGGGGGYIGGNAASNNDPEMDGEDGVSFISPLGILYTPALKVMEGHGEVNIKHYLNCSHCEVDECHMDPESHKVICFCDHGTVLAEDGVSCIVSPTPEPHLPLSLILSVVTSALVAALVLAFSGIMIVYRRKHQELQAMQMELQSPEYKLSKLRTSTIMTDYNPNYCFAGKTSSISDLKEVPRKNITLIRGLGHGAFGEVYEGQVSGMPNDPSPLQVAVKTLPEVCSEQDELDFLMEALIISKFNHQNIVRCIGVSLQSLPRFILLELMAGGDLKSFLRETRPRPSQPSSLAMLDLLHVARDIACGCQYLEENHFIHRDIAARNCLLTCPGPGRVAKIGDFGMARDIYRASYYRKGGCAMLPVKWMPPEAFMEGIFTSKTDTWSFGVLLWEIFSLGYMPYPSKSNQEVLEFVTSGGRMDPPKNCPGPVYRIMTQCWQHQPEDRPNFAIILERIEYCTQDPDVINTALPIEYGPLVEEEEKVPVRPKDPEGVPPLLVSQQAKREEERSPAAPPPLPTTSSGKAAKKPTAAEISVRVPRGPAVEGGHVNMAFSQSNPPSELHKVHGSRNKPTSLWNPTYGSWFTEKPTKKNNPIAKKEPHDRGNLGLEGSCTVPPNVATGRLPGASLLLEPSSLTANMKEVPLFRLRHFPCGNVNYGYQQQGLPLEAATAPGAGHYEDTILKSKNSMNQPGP
T4 sequence (O60674 828-1132): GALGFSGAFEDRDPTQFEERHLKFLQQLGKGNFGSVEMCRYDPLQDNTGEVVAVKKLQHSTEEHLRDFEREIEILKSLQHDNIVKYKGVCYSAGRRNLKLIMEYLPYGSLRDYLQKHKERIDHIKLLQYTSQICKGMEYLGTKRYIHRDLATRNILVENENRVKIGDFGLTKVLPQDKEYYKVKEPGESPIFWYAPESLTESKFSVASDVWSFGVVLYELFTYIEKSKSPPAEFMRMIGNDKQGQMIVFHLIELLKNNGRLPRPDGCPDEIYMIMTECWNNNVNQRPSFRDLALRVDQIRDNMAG

Broadly, the IC50 is the concentration at which inhibition is half-maximal. Take `CCCS(=O)(=O)Nc1ccc2cc1CCc1cccc(c1)Nc1ncc(Cl)c(n1)N2` [Example B142, N-[6-Chloro-2,4,8,22-tetraazatetracyclo[14.3.1.1(3,7).1(9,13)]docosa-1(20), 3(22),4,6,9(21),10,12,16,18-nonaen-12-yl]propane-1-sulfonamide trifluoroacetate]: the IC50 in assay [1] is 4.6 nM; in assay [2], 990 nM; in assay [3] it was 0.85 nM; in assay [4], 0.31 nM; against TYK2, 1.5 nM.

Regarding `CC(C)S(=O)(=O)Nc1ccc2cc1CCc1cccc(c1)Nc1ncc(Cl)c(n1)N2` [Example B143, N-[6-Chloro-2,4,8,22-tetraazatetracyclo[14.3.1.1(3,7).1(9,13)]docosa-1(20), 3(22),4,6,9(21),10,12,16,18-nonaen-12-yl]propane-2-sulfonamide trifluoroacetate], the IC50 is 104 nM in assay [1]; above 1000 nM in assay [2]; 11 nM in assay [3]; 2.8 nM in assay [4]; 13 nM at TYK2.

As to `Cn1cnc(S(=O)(=O)Nc2ccc3cc2CCc2cccc(c2)Nc2ncc(Cl)c(n2)N3)c1` [Example B144, N-[6-Chloro-2,4,8,22-tetraazatetracyclo[14.3.1.1(3,7).1(9,13)]docosa-1(20), 3(22),4,6,9(21),10,12,16,18-nonaen-12-yl]-1-methyl-1H-imidazole-4-sulfonamide bis(trifluoroacetate)], the IC50 in assay [1] was 4.2 nM; in assay [2], 600 nM; in assay [3], 0.34 nM; in assay [4], 0.2 nM; against TYK2, 0.5 nM.

As to `O=S(=O)(Nc1ccc2cc1CCc1cccc(c1)Nc1ncc(Cl)c(n1)N2)c1cccs1` [Example B146, N-[6-Chloro-2,4,8,22-tetraazatetracyclo[14.3.1.1(3,7).1(9,13)]docosa-1(20), 3(22),4,6,9(21),10,12,16,18-nonaen-12-yl]thiophene-2-sulfonamide trifluoroacetate], the IC50 is 2.6 nM in assay [1]; 130 nM in assay [2]; 0.5 nM in assay [3]; 0.11 nM in assay [4]; 0.61 nM against TYK2.

As for `O=S(=O)(Cc1ccccc1)Nc1ccc2cc1CCc1cccc(c1)Nc1ncc(Cl)c(n1)N2` [Example B147, N-[6-Chloro-2,4,8,22-tetraazatetracyclo[14.3.1.1(3,7).1(9,13)]docosa-1(20), 3(22),4,6,9(21),10,12,16,18-nonaen-12-yl]-1-phenylmethanesulfonamide trifluoroacetate], the IC50 in assay [1] stood at 37 nM; in assay [2] it was 1800 nM; in assay [3], 2.5 nM; in assay [4], 1.5 nM; at TYK2, 6.6 nM.

As to `Cc1cccc(S(=O)(=O)Nc2ccc3cc2CCc2cccc(c2)Nc2ncc(Cl)c(n2)N3)c1` [Example B148, N-[6-Chloro-2,4,8,22-tetraazatetracyclo[14.3.1.1(3,7).1(9,13)]docosa-1(20), 3(22),4,6,9(21),10,12,16,18-nonaen-12-yl]-3-methylbenzenesulfonamide trifluoroacetate], the half-inhibitory concentration (IC50) in assay [1] came out at 1.1 nM; in assay [2] it was 150 nM; in assay [3] it was 0.49 nM; in assay [4], 0.13 nM; on TYK2 it was 0.53 nM.

As for `Cc1ccc(S(=O)(=O)Nc2ccc3cc2CCc2cccc(c2)Nc2ncc(Cl)c(n2)N3)cc1` [Example B150, N-[6-Chloro-2,4,8,22-tetraazatetracyclo[14.3.1.1(3,7).1(9,13)]docosa-1(20), 3(22),4,6,9(21),10,12,16,18-nonaen-12-yl]-4-methylbenzenesulfonamide trifluoroacetate], the 50% inhibitory concentration (IC50) in assay [1] worked out at 6.3 nM; in assay [2], 180 nM; in assay [3] it was 0.41 nM; in assay [4] it was 0.15 nM; against TYK2, 0.86 nM.

With `Cc1noc(C)c1S(=O)(=O)Nc1ccc2cc1CCc1cccc(c1)Nc1ncc(Cl)c(n1)N2` [Example B152, N-[6-Chloro-2,4,8,22-tetraazatetracyclo[14.3.1.1(3,7).1(9,13)]docosa-1(20),3(22),4,6,9(21),10,12,16,18-nonaen-12-yl]-3,5-dimethylisoxazole-4-sulfonamide trifluoroacetate], the IC50 in assay [1] is 11 nM; in assay [2], 430 nM; in assay [3], 0.35 nM; in assay [4], 0.14 nM; at TYK2, 0.5 nM.

As to `N#Cc1cccc(S(=O)(=O)Nc2ccc3cc2CCc2cccc(c2)Nc2ncc(Cl)c(n2)N3)c1` [Example B153, N-[6-Chloro-2,4,8,22-tetraazatetracyclo[14.3.1.1(3,7).1(9,13)]docosa-1(20),3(22),4,6,9(21),10,12,16,18-nonaen-12-yl]-3-cyanobenzenesulfonamide trifluoroacetate], the concentration for half-maximal inhibition (IC50) is 0.48 nM in assay [1]; 70 nM in assay [2]; 0.69 nM in assay [3]; 0.1 nM in assay [4]; 0.44 nM against TYK2.

As for `N#Cc1ccc(S(=O)(=O)Nc2ccc3cc2CCc2cccc(c2)Nc2ncc(Cl)c(n2)N3)cc1` [Example B154, N-[6-Chloro-2,4,8,22-tetraazatetracyclo[14.3.1.1(3,7).1(9,13)]docosa-1(20), 3(22),4,6,9(21),10,12,16,18-nonaen-12-yl]-4-cyanobenzenesulfonamide trifluoroacetate], the concentration for half-maximal inhibition (IC50) in assay [1] turned out to be 5.3 nM; in assay [2], 280 nM; in assay [3] it was 0.6 nM; in assay [4], 0.1 nM; at TYK2, 0.83 nM.

Take `N#Cc1ccccc1S(=O)(=O)Nc1ccc2cc1CCc1cccc(c1)Nc1ncc(Cl)c(n1)N2` [Example B155, N-[6-Chloro-2,4,8,22-tetraazatetracyclo[14.3.1.1(3,7).1(9,13)]docosa-1(20), 3(22),4,6,9(21),10,12,16,18-nonaen-12-yl]-2-cyanobenzenesulfonamide trifluoroacetate]: the IC50 in assay [1] was 40 nM; in assay [2], above 1000 nM; in assay [3], 1.3 nM; in assay [4], 2.4 nM; at TYK2 it was 2.2 nM.

As for `COc1ccc(S(=O)(=O)Nc2ccc3cc2CCc2cccc(c2)Nc2ncc(Cl)c(n2)N3)cc1` [Example B156, N-[6-Chloro-2,4,8,22-tetraazatetracyclo[14.3.1.1(3,7).1(9,13)]docosa-1(20), 3(22),4,6,9(21),10,12,16,18-nonaen-12-yl]-4-methoxybenzenesulfonamide trifluoroacetate], the IC50 in assay [1] was found to be 17 nM; in assay [3] it was 0.75 nM; in assay [4] it was 1.5 nM; at TYK2 it was 2.7 nM. Moreover, the “ALK % of inhibition at a concentration of 500 nM or 1 mM” value (“ALK % of inhibition” for short) in assay [2] was 28%.

Take `COc1cccc(S(=O)(=O)Nc2ccc3cc2CCc2cccc(c2)Nc2ncc(Cl)c(n2)N3)c1` [Example B157, N-[6-Chloro-2,4,8,22-tetraazatetracyclo[14.3.1.1(3,7).1(9,13)]docosa-1(20), 3(22),4,6,9(21),10,12,16,18-nonaen-12-yl]-3-methoxybenzenesulfonamide trifluoroacetate]: the IC50 in assay [1] was 0.3 nM; in assay [3], 0.51 nM; in assay [4] it was 0.15 nM; at TYK2, 0.62 nM. In assay [2], the “ALK % of inhibition” value is reported as 87%.

As to `O=S(=O)(Nc1ccc2cc1CCc1cccc(c1)Nc1ncc(Cl)c(n1)N2)C1CC1` [Example B158, N-[6-Chloro-2,4,8,22-tetraazatetracyclo[14.3.1.1(3,7).1(9,13)]docosa-1(20), 3(22),4,6,9(21),10,12,16,18-nonaen-12-yl]cyclopropanesulfonamide trifluoroacetate], the IC50 was found to be 0.64 nM in assay [1], 0.15 nM in assay [3], 0.15 nM in assay [4] and 0.49 nM against TYK2. Further, in assay [2], the “ALK % of inhibition” value is reported as 71%.

In the case of `O=C(O)c1cccc(S(=O)(=O)Nc2ccc3cc2CCc2cccc(c2)Nc2ncc(Cl)c(n2)N3)c1` [Example B159, 3-({[6-Chloro-2,4,8,22-tetraazatetracyclo[14.3.1.1(3,7).1(9,13)]docosa-1(20),3(22),4,6,9(21),10,12,16,18-nonaen-12-yl]amino}sulfonyl)benzoic acid trifluoroacetate], the IC50 in assay [1] turned out to be 3.1 nM; in assay [3], 1.3 nM; in assay [4], 0.46 nM; on TYK2, 1.6 nM. For the same compound, the “ALK % of inhibition” value in assay [2] came out at 82%.

`O=S(=O)(Nc1ccc2cc1CCc1cccc(c1)Nc1ncc(Cl)c(n1)N2)c1cccc2cccnc12` [Example B160, N-[6-Chloro-2,4,8,22-tetraazatetracyclo[14.3.1.1(3,7).1(9,13)]docosa-1(20), 3(22),4,6,9(21),10,12,16,18-nonaen-12-yl]quinoline-8-sulfonamide bis(trifluoroacetate)]: the IC50 in assay [1] is 102 nM; in assay [3], 12 nM; in assay [4], 6.4 nM; at TYK2, 2.4 nM. Moreover, the “ALK % of inhibition” value in assay [2] was found to be 4.6%.
